These results are taken from article PMC10821600 (The Journal of Biological Chemistry, 2023).

In data set [1] the target is human NaV1.6 (Homo sapiens, UniProt Q9UQD0). In words: cell-based. Particulars: SEM.
Data set [2] concerns the target human NaV1.7 (Homo sapiens, UniProt Q15858). In words: cell-based. Conditions: SEM.
The target in data set [3] is mouse NaV1.7 (Mus musculus, UniProt Q62205). In words: cell-based. Conditions: SEM.
For data set [4], the target named is human NaV1.9 (Homo sapiens, UniProt Q9UI33). In words: cell-based.
Data set [5] addresses human NaV1.8 (Homo sapiens, UniProt Q9Y5Y9). In words: cell-based.
Data set [6] concerns blowflies (L. caesar). Set-up: species or system Lucilia caesar. Conditions: in vivo.
The subject of data set [7] is HEK293 cells. Particulars: 1 h.
Data set [8] concerns C57BL/6J mice. Particulars: mouse, in vivo.
Data set [9] relates to human erythrocytes. Conditions: red cells of human, 1 h.

Where two headings read alike, the source gives them in different places. No end group written: not given here. A value given as a limit tells only on which side of the number the result lay.

As a reminder, the EC50 is the concentration giving half of the maximal effect. High values mean weaker potency, low ones greater potency.

Chain of mouse NaV1.7 (Q07699 19-218): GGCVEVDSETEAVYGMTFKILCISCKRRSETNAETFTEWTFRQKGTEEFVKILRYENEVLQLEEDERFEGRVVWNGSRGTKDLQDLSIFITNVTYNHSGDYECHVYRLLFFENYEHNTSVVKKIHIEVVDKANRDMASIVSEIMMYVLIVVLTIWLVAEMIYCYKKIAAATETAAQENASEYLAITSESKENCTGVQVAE
Chain of mouse NaV1.7 (Q62205 whole entry): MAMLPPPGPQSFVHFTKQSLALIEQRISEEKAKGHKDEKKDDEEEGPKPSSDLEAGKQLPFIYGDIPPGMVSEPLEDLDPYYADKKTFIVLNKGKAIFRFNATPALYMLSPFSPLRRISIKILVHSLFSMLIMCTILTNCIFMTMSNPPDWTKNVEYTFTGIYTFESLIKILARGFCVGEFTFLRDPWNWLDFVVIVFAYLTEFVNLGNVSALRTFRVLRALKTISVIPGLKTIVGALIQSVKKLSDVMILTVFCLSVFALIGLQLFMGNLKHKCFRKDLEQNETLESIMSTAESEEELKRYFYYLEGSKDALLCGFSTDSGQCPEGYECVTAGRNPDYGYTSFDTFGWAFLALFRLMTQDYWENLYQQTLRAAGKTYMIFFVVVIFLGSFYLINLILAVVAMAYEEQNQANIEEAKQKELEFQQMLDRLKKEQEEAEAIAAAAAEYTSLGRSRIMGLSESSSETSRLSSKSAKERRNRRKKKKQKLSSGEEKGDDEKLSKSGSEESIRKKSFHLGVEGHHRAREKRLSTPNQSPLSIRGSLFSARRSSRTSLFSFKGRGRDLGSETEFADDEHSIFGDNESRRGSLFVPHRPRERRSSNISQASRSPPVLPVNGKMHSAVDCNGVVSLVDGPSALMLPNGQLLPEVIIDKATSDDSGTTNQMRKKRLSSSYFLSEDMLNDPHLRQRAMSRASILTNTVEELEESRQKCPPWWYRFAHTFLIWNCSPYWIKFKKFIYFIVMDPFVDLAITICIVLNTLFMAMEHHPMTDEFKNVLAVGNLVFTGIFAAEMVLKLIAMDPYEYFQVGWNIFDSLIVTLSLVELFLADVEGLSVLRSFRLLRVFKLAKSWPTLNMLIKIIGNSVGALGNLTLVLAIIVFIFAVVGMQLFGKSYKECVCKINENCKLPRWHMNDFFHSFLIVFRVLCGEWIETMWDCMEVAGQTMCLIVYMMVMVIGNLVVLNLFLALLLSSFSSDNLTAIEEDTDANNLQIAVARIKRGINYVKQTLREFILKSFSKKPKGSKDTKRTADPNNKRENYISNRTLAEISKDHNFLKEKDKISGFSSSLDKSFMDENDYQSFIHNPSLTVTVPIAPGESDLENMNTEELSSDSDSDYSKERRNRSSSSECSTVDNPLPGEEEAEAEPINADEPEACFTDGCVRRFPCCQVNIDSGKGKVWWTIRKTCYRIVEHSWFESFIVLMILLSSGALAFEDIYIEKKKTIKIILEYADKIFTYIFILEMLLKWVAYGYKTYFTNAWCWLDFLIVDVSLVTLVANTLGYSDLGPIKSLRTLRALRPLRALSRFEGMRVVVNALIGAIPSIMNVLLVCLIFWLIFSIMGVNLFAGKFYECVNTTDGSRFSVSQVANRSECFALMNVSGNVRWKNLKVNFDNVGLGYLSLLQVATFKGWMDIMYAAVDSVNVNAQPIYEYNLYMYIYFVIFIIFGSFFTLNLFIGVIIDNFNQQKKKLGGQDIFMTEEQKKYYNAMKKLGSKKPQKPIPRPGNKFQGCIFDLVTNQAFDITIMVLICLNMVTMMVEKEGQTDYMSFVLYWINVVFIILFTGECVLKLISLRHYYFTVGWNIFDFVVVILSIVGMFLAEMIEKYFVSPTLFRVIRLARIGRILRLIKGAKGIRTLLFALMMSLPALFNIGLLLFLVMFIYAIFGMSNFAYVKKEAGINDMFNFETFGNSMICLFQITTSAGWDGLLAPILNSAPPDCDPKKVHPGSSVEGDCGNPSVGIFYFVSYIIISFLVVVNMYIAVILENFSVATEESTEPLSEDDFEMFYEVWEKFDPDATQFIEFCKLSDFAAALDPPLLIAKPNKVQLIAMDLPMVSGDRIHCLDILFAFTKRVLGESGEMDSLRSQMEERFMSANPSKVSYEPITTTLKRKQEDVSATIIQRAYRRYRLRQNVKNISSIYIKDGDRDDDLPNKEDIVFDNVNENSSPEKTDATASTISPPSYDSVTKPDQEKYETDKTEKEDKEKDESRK
Chain of human NaV1.7 (Q07699 19-218): as the sequence (Q07699 19-218) above
Chain of human NaV1.7 (Q15858 whole entry): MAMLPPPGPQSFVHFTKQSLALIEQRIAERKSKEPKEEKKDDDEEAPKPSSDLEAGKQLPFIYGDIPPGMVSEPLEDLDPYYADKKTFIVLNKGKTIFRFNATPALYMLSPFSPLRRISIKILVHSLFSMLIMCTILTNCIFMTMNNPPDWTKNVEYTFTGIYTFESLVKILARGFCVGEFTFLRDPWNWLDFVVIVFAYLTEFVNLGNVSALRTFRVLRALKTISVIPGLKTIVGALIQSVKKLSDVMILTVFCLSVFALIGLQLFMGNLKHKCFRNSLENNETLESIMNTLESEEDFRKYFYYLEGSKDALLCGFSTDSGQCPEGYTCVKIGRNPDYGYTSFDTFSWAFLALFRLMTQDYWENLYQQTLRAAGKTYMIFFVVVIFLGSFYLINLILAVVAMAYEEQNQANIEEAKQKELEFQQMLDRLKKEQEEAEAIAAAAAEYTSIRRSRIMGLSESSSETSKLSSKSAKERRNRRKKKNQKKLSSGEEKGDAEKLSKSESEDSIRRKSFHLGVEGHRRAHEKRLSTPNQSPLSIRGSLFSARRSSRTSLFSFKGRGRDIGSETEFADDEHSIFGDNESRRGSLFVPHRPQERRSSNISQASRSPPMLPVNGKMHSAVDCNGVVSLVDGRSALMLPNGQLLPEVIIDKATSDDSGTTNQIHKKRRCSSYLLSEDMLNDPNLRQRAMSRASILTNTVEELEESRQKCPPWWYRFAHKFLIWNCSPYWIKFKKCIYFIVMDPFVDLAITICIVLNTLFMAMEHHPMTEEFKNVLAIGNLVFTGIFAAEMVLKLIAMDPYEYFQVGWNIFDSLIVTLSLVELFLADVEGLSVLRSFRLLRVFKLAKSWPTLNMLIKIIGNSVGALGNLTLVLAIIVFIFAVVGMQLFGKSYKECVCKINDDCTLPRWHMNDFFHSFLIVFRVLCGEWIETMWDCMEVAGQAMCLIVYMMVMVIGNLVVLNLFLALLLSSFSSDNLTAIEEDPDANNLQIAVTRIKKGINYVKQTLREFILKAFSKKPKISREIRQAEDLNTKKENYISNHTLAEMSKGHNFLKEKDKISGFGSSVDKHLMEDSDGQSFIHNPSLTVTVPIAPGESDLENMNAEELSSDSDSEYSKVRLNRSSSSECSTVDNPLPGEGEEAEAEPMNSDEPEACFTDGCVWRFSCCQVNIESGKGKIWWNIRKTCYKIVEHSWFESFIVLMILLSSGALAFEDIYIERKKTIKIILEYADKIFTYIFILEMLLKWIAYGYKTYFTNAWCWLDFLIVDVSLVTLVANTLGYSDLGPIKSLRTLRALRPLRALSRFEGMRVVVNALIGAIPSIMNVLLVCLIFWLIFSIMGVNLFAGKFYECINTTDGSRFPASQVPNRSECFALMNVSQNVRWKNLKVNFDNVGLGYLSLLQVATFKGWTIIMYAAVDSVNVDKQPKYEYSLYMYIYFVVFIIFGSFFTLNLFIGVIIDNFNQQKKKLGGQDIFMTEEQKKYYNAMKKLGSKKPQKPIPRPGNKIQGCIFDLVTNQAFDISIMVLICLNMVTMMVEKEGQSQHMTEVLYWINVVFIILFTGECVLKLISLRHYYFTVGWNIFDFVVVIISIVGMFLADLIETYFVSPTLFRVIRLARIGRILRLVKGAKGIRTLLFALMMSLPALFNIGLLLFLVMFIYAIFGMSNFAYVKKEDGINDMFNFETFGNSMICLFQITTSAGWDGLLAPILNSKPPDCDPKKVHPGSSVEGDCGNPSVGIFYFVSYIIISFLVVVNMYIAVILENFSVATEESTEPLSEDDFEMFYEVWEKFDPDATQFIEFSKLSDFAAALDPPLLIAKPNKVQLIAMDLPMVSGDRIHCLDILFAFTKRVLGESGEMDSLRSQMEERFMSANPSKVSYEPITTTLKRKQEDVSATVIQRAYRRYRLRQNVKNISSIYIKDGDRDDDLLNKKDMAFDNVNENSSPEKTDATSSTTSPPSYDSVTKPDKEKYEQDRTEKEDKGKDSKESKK

Take GLPLLALLFSLPVLQHWIEKNWIN-NH2 [Pm1a]: the EC50 in [1] was 285 ± 47 nM; in [2], 403 ± 96 nM; in data set [3] it was 352 ± 58 nM; in [4], more than 1000 nM; in [5], more than 10000 nM.
Regarding “GIFSALKTLGKILLPVILPTVAEKIKEKV-NH2 [Pm6a]”, in [6], the “kind of paralysis in blowflies” value is “rapid paralysis” and the “reversibility of paralysis in blowflies” value is “irreversible”. In addition, in data set [6] (SEM), the “median paralytic dose PD50[1 h]” value is 9.9 ± 0.4 nmol/g. In addition, the “median cytotoxic concentration (CC50)” value in [7] amounted to 465 ± 359 nM. For the same substance, in [8], the “spontaneous nocifensive behaviors in mice” value was “did not cause nociception in mice”. In data set [9], the “median hemolytic concentration (HC50)” value was 618 ± 148 nM.
For the substance ALPALPLLMFLFTLPALQHWIEKNWIN-NH2 [Pm2a], the EC50 in [1] is 176 ± 56 nM; in data set [2], 154 ± 17 nM; in data set [3], 102 ± 18 nM; in data set [4] it was less than 1000 nM; in [5] (SEM), 2600 ± 700 nM.
